Source: ChEMBL document CHEMBL3885861, “Open TG-GATES”

Organism: Rattus norvegicus
Test: Open TG-GATES - Regimen: Single
Type: toxicity, organism-based, Sprague-Dawley
Set-up: regimen Single, gender Male, age 6 weeks
Details: in vivo, po, 250 mg/kg, route gavage, dose level Middle; for APTT / Bas / Eos / Fbg / Hb / Ht / Lym / MCH / MCHC / MCV / Mono / Neu / PT / Plat / RBC / Ret / WBC: tissue Blood; for KIDNEY_L / KIDNEY_R / KIDNEY_TOTAL: tissue Kidney; for LIVER: tissue Liver; for A/G / ALP / ALT / AST / BUN / CRE / Ca / Cl / DBIL / GLC / IP / K / LDH / Na / PL / RALB / TBIL / TC / TG / TP / gamma-GTP: tissue Plasma

CN(C/C=C/C#CC(C)(C)C)Cc1cccc2ccccc12 [TERBINAFINE]
TERMINAL_BW (3 h): 225.8 g | APTT (3 h): 20 s | Bas (3 h): 0.6% | Eos (3 h): 0.8% | Fbg (3 h): 215.8 mg/dL | Hb (3 h): 13.2 g/dL | Ht (3 h): 39.2% | Lym (3 h): 79.4% | MCH (3 h): 21.8 pg | MCHC (3 h): 33.7% | MCV (3 h): 64.7 fL | Mono (3 h): 2.2% | Neu (3 h): 16.6% | PT (3 h): 12.2 s | Plat (3 h): 125.2 x10_4/uL | RBC (3 h): 606.8 x10_4/ul | Ret (3 h): 7.2% | WBC (3 h): 90.5 x10_2/uL | KIDNEY_L (3 h): 1 g | KIDNEY_R (3 h): 1 g | KIDNEY_TOTAL (3 h): 2 g | LIVER (3 h): 10.4 g | A/G (3 h): 1.7 | ALP (3 h): 909.4 IU/L | ALT (3 h): 42.4 IU/L | AST (3 h): 72.8 IU/L | BUN (3 h): 12 mg/dL | CRE (3 h): 0.4 mg/dL | Ca (3 h): 10.6 mg/dL | Cl (3 h): 103.6 meq/L | DBIL (3 h): 0.084 mg/dL | GLC (3 h): 213 mg/dL | IP (3 h): 9.1 mg/dL | K (3 h): 3.9 meq/L | LDH (3 h): 166.8 IU/L | Na (3 h): 141.4 meq/L | PL (3 h): 123.8 mg/dL | RALB (3 h): 3.4 g/dL | TBIL (3 h): 0.1 mg/dL | TC (3 h): 65 mg/dL | TG (3 h): 43.8 mg/dL | TP (3 h): 5.4 g/dL | gamma-GTP (3 h): 1 IU/L | TERMINAL_BW (6 h): 221.8 g | APTT (6 h): 18.1 s | Bas (6 h): 0.4% | Eos (6 h): 0.8% | Fbg (6 h): 220.6 mg/dL | Hb (6 h): 13.3 g/dL | Ht (6 h): 39.5% | Lym (6 h): 74% | MCH (6 h): 21.5 pg | MCHC (6 h): 33.7% | MCV (6 h): 64 fL | Mono (6 h): 2.4% | Neu (6 h): 22.2% | PT (6 h): 12.3 s | Plat (6 h): 110.3 x10_4/uL | RBC (6 h): 617.4 x10_4/ul | Ret (6 h): 6.8% | WBC (6 h): 90.7 x10_2/uL | KIDNEY_L (6 h): 1 g | KIDNEY_R (6 h): 1 g | KIDNEY_TOTAL (6 h): 2 g | LIVER (6 h): 9.6 g | A/G (6 h): 1.8 | ALP (6 h): 842.8 IU/L | ALT (6 h): 36 IU/L | AST (6 h): 70.6 IU/L | BUN (6 h): 11.4 mg/dL | CRE (6 h): 0.4 mg/dL | Ca (6 h): 10.6 mg/dL | Cl (6 h): 102.8 meq/L | DBIL (6 h): 0.086 mg/dL | GLC (6 h): 204 mg/dL | IP (6 h): 9.7 mg/dL | K (6 h): 4 meq/L | LDH (6 h): 156 IU/L | Na (6 h): 141.4 meq/L | PL (6 h): 132.2 mg/dL | RALB (6 h): 3.5 g/dL | TBIL (6 h): 0.2 mg/dL | TC (6 h): 71.8 mg/dL | TG (6 h): 35.2 mg/dL | TP (6 h): 5.4 g/dL | gamma-GTP (6 h): 1 IU/L
